In patent JP2013241470A, “ペプチド含有組成物” (Kikkoman Corp, priority 2013, dated 2013):

Biological target: T1, ACE (angiotensin converting enzyme) (アンジオテンシン変換酵素) (Oryctolagus cuniculus, UniProt P12822)
T1 construct: 0.3U/ml ACE(ウサギ肺由来、シグマ製); purchased Sigma (シグマ); host or cells: rabbit lung tissue
T1 sequence (P12822 34-1310): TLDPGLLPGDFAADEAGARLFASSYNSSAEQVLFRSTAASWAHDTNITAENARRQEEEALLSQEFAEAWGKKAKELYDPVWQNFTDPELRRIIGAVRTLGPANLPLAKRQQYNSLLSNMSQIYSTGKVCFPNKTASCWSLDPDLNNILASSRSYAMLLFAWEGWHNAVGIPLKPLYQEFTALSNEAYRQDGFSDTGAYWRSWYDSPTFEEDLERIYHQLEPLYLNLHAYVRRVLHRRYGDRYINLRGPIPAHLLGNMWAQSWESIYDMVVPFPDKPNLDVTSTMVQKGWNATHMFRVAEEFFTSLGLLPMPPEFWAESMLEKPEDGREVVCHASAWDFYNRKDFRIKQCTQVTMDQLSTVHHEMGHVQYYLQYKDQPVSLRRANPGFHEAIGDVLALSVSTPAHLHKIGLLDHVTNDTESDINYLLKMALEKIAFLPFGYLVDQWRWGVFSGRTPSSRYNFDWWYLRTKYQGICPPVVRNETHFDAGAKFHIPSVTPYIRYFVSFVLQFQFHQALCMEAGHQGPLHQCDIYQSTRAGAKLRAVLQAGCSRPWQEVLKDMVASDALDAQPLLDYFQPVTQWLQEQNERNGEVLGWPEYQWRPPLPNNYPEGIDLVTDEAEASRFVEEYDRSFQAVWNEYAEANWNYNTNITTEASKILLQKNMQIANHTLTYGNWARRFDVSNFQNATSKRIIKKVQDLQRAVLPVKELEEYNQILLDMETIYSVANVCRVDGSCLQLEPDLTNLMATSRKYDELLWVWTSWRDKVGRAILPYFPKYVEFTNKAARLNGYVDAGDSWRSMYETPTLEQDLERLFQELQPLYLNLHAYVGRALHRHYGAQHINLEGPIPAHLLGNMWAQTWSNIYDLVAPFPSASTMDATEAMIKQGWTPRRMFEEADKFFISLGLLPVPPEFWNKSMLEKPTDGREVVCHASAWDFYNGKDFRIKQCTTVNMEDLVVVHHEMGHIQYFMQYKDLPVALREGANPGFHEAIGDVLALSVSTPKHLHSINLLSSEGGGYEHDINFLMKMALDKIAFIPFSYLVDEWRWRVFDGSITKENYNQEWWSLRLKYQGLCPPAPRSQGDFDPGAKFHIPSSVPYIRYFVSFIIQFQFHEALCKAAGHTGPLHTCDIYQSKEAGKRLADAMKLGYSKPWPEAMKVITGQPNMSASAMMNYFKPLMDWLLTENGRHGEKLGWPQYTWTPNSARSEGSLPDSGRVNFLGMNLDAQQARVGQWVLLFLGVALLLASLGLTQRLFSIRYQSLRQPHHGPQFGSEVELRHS
Test: ACE inhibitory activity (modified Cushman method, Hippuryl-His-Leu substrate)
Format: biochemical, rabbit

Tyr−Thr was tested, and the ACE inhibitory activity (chemically synthesised peptide, compared with known soybean-derived ACE inhibitory peptides (Table 1, not visible), ACE from rabbit lung, 37 °C, 30 min, pH 8.3) was “既知のペプチドと比較して充分に強い活性を有している” and the ACE inhibitory activity (chromatographic fractions during isolation from composition 1 (組成物1)) was “矢印で示したピークにのみ活性が見られた”.
